# From paper PMC6266305 (Nutrients, 2018)
# Entries after “also recorded” stand apart in the source; their conditions may differ. Read-outs that look alike come from different tables or passages of the source.
# Key:
# Caco-2 TC7 cells = assay: Uptake and apical-to-basolateral transport by Caco-2 TC7 cell monolayers of diluted aqueous fractions from in vitro digestions; assay type: in vitro ADME, human; details: for Recovery in the cytosolic compartment of the cells or in the basolateral media (crossing of Caco-2 monolayers, native form): 6-h incubation; for Decrease of amount in the apical media: 6-h incubation on cell monolayers; for Amount found in the cytosolic compartment of Caco-2 cells, percentage of the initial amount at the apical side: 6 h incubation
# Experimental: (§1) Caco-2 TC7 cells were grown in DMEM supplemented with 16% (v/v) fetal bovine serum, 1% (v/v) non-essential amino-acids, and 1% (v/v) antibiotics (complete medium), as previously described. Cells were then seeded at a density of 15 000 cells/well, grown on transwell membrane (six-well plate, […] polycarbonate membrane; Becton Dickinson) and incubated in humidified atmosphere of 5% CO2 and 95% air at 37 °C during 21 days to obtain confluent and differentiated cell monolayers.
# (§2) The cytotoxicity on Caco-2 cells of the aqueous fractions from in vitro digestions was first assessed to determine the suitable dilution required before adding the aqueous fractions to the apical side of cell monolayers. […] To avoid any interference with DMEM or serum components, the aqueous fractions were diluted in HBSS. Caco-2 cells also received HBSS in both chambers 12 h before the experiments. At the beginning of each experiment, cells were rinsed twice with 1 mL of PBS. Then, 1 mL of diluted aqueous fraction was added to the apical side and 2 mL of HBSS were added at the basolateral side. After an incubation period (2, 4, or 6 h) at 37 °C, both apical and basolateral media were harvested. Cells were then rinsed twice with 1mL of PBS and scrapped in 0.5 mL of iced-cold PBS. All analyses were run in quadruplicate and samples were stored at −80 °C until further analysis.
# (§3) Gallic acid was chosen as internal standard as it was not present in the extract. Phenolic compounds were extracted from salivary, gastric and duodenal samples as follows: 0.3 mL of ethanol and 0.2 mL of n-hexane were added to 0.2 mL of sample and the mixture was stirred for 10 min using a vortex blender at maximal speed. After centrifugation (3560 g for 10 min at 4 °C), the lower phase was collected. The solid bottom was re-extracted with 0.3 mL of ethanol and vortexed for 10 min. The second ethanol phase recovered was pooled to the previously collected phase, and then dried using a Speed-Vac®. The dried extracts were dissolved in 200 µL of water. Apical media were directly injected. To concentrate them, basolateral media (1900 µL) were dried using a Speed-Vac®, and the dried residues were dissolved into 80 µL of water. All samples were stored at −80 °C before analysis.
# (§4) Following the procedure by Gallardo et al. (2016), 50 µL of internal standard were added to harvested cells (in 500 µL PBS). Samples were then sonicated for 10 min at room temperature and centrifuged (10,000 g for 10 min at 4 °C). Supernatants were collected and evaporated to dryness. The dried residues were dissolved in 50 µL of water and stored at −80 °C before analysis.
# (§5) All samples were analyzed by UHPLC-DAD-MS using an Acquity UPLC® system that was linked to both a diode-array detector and a Bruker Daltonics HCT Ultra Ion Traps mass spectrometer equipped with an Electron Spray Ionization (ESI) source operating in negative ion mode. The separation was performed on an Acquity C18 BEH column (50 × 2.1 mm i.d., 1.7 µm) kept at 35 °C. The solvents were (A) water/formic acid (99.5/0.5) and (B) acetonitrile. The proportions of solvent B used were: 0–10 min: 1–20%, 10–12 min: 20–30%, 12–14 min: 30–100%. Along the three steps of the gradient, the flow rate was 0.30, 0.35, and 0.40 mL/min. The injection volume was 1 μL for digestion and apical medium samples, and 10 µL for cells and basolateral samples. Chromatograms were acquired at 280 nm. The spectroscopic detection was performed in the range 200–800 nm with a resolution of 1.2 nm. The concentrations of phenolic compounds Tyr, CA, and p-Cm were estimated from calibration curves (peak area vs. concentration) with R² values greater than 0.99 [26].
# (§6) Results were expressed as means ± standard deviations. Differences between means were assessed using ANOVA followed by the post-hoc Tukey test for parametric data. P values under 0.05 were considered to be significant. […]
# [1] = In vitro digestion model: bioaccessibility of alperujo phenolic compounds added to a test meal (percentage found in the aqueous phase of the digesta); assay type: in vitro ADME; details: for recovery: pig
# Experimental: The in vitro digestion was carried out as previously described. […] The mixture was dispersed with Ultra-Turrax® (Ika) and artificial saliva (2.5 mL, pH 7) was added to the mixture. The sample was incubated for 10 min at 37 °C in a shaking incubator. The pH of the gastric medium was adjusted to 4.00 ± 0.02 with 1 M HCl. Then, porcine pepsin (2 mL, 40 mg/mL in 0.1 M HCl) was added and the homogenate was incubated at 37 °C in a shaking incubator for 30 min simulating the gastric step. The pH of the mixture was raised to 6.00 ± 0.02 with 0.9 M NaHCO3 and 13 mL of a mixture of porcine bile extract (39.08 mg/mL) and pancreatin (2.08 mg/mL) in 0.1 M trisodium citrate (pH 6) were added. Samples were incubated in a shaking incubator at 37 °C for 30 min to complete the digestion process. The final mixture representing the digesta was centrifuged (2500 g for 1 h at 10 °C) to separate the aqueous fraction. […] All analyses were run in quadruplicate. Aliquots from salivary, gastric, and duodenal steps were frozen at −80 °C until use. […] After centrifugation (3560 g for 10 min at 4 °C), the lower phase was collected. The solid bottom was re-extracted with 0.3 mL of ethanol and vortexed for 10 min. The second ethanol phase recovered was pooled to the previously collected phase, and then dried using a Speed-Vac®. The dried extracts were dissolved in 200 µL of water. Apical media were directly injected. […] All samples were stored at −80 °C before analysis. All samples were analyzed by UHPLC-DAD-MS using an Acquity UPLC® system that was linked to both a diode-array detector and a Bruker Daltonics HCT Ultra Ion Traps mass spectrometer equipped with an Electron Spray Ionization (ESI) source operating in negative ion mode. The separation was performed on an Acquity C18 BEH column (50 × 2.1 mm i.d., 1.7 µm) kept at 35 °C. The solvents were (A) water/formic acid (99.5/0.5) and (B) acetonitrile. […] Along the three steps of the gradient, the flow rate was 0.30, 0.35, and 0.40 mL/min. […] Chromatograms were acquired at 280 nm. The spectroscopic detection was performed in the range 200–800 nm with a resolution of 1.2 nm.
# [2] = Uptake and apical-to-basolateral transport by Caco-2 TC7 cell monolayers of diluted aqueous fractions from in vitro digestions; assay type: in vitro ADME, human; details: human; for recovery at 6 h: Caco-2, 6 h
# Experimental: as §1, §2, §3, §4, §5, §6
# Caco-2 cells = assay: Overall in vitro bioavailability: basolateral amount in Caco-2 cells relative to the initial amount in the test meal before in vitro digestion; assay type: in vitro ADME, human; details: mean ± SD (n = 4)
# Experimental: The in vitro digestion was carried out as previously described. […] The mixture was dispersed with Ultra-Turrax® (Ika) and artificial saliva (2.5 mL, pH 7) was added to the mixture. The sample was incubated for 10 min at 37 °C in a shaking incubator. […] Then, porcine pepsin (2 mL, 40 mg/mL in 0.1 M HCl) was added and the homogenate was incubated at 37 °C in a shaking incubator for 30 min simulating the gastric step. […] Samples were incubated in a shaking incubator at 37 °C for 30 min to complete the digestion process. The final mixture representing the digesta was centrifuged (2500 g for 1 h at 10 °C) to separate the aqueous fraction. […] The cytotoxicity on Caco-2 cells of the aqueous fractions from in vitro digestions was first assessed to determine the suitable dilution required before adding the aqueous fractions to the apical side of cell monolayers. […] To avoid any interference with DMEM or serum components, the aqueous fractions were diluted in HBSS. Caco-2 cells also received HBSS in both chambers 12 h before the experiments. At the beginning of each experiment, cells were rinsed twice with 1 mL of PBS. […] Cells were then rinsed twice with 1mL of PBS and scrapped in 0.5 mL of iced-cold PBS. All analyses were run in quadruplicate and samples were stored at −80 °C until further analysis. Results were expressed as means ± standard deviations. Differences between means were assessed using ANOVA followed by the post-hoc Tukey test for parametric data. […] Two parameters were assessed to express the bioavailability: a) the ratio between the mass of phenolic compounds recovered at the basolateral side and the initial mass added to the apical side, b) the ratio between the mass of phenolic compounds recovered at the basolateral side and the initial mass added to the meal.
# [3] = pH 6, in vitro digestion with test meal, average of alperujo and alperujo-CD, mean ± SD, read-out: Bioaccessibility (recovery in the final aqueous phase at the duodenal step)
Decrease of amount in the apical media (Caco-2 TC7 cells; from alperujo),"Recovery in the cytosolic compartment of the cells or in the basolateral media (crossing of Caco-2 monolayers, native form) (Caco-2 TC7 cells; listed as Hydroxytyrosol-O-glucoside)","Bioaccessibility (recovery in the final aqueous phase at the duodenal step) ([1]; in vitro digestion with test meal, average of alperujo and alperujo-CD, mean ± SD) [%]","Recovery in the cytosolic compartment of the cells or in the basolateral media (crossing of Caco-2 monolayers, native form) (Caco-2 TC7 cells; listed as caffeic)","recovery [1, 3] [%]","recovery at 6 h ([2]; from alperujo-CD, mean ± SD (n = 4), read-out: Bioavailability in Caco-2 cells (recovery on the basolateral side) as percentage of initial apical amount) [%]","recovery at 6 h ([2]; from alperujo, mean ± SD (n = 4), read-out: Bioavailability in Caco-2 cells (recovery on the basolateral side) as percentage of initial apical amount) [%]","recovery at 6 h ([2]; read-out: Total recovery in the three compartments (apical, basolateral, cells)) [%]","Basolateral amount as percentage of initial apical amount (Caco-2 transport) ([2]; Caco-2, whether from alperujo or alperujo-CD, read-out: Bioavailability (basolateral amount compared with initial apical amount)) [%]","Amount found in the cytosolic compartment of Caco-2 cells, percentage of the initial amount at the apical side (Caco-2 TC7 cells; from alperujo) [%]","Amount found in the cytosolic compartment of Caco-2 cells, percentage of the initial amount at the apical side (Caco-2 TC7 cells; from alperujo-CD) [%]","Metabolism in the intestinal cells (Caco-2 TC7 cells; Caco-2 cells, inferred from total recovery)","Improvement of local absorption by β-CD (Caco-2 TC7 cells; alperujo-CD vs alperujo, p < 0.05) [%]",Bioavailability in Caco-2 cells as percentage of initial amount in the test meal before in vitro digestion (bioaccessibility × absorption by Caco-2 cells) (Caco-2 cells; from alperujo-CD),"Bioavailability in Caco-2 cells as percentage of initial amount in the test meal before in vitro digestion (bioaccessibility × absorption by Caco-2 cells) (Caco-2 cells; from alperujo-CD, listed as p-coumaric acid) [%]",Bioavailability in Caco-2 cells as percentage of initial amount in the test meal before in vitro digestion (bioaccessibility × absorption by Caco-2 cells) (Caco-2 cells; from alperujo),"Bioavailability in Caco-2 cells as percentage of initial amount in the test meal before in vitro digestion (bioaccessibility × absorption by Caco-2 cells) (Caco-2 cells; from alperujo, listed as p-coumaric acid) [%]","Higher bioaccessibility of p-Cm than CA ([1]; in vitro digestion, final aqueous phase) [%]","recovery ([1]; pH 6, in vitro digestion, relative to the initial quantity, read-out: Recovery in the digesta) [%]",Compound,"Recovery in the cytosolic compartment of the cells or in the basolateral media (crossing of Caco-2 monolayers, native form) (Caco-2 TC7 cells)"
about 10%,did not cross Caco-2 cell monolayers,73.2 ± 4.5,,,,,,,,,,,,,,,,,hydroxytyrosol-O-glucoside [HT-Glc],neither HT-Glc nor CA was recovered; also recorded: no HT-Glc was recovered
~18%,,,did not cross Caco-2 cell monolayers,~64.9,,,,,,,,,,,,,,,"O=C(O)/C=C/c1ccc(O)c(O)c1 [CA, caffeic acid]",neither HT-Glc nor CA was recovered; also recorded: not recovered; also recorded: not found bioavailable in its native form
,,,,> 87.9,48.7 ± 2,40.2 ± 4.1,~100,> 40,1.6 ± 0.1,1.8 ± 0.2,no metabolism occurred,8.5 ± 4.2,37.2 ± 3.2 ^a %,37.2 ± 3.2,32.0 ± 3.2 ^a %,32.0 ± 3.2,25,≥ 100,"O=C(O)/C=C/c1ccc(O)cc1 [p-Cm, p-coumaric acid]",
